SMILES strings stand for the structures. pKd: −log10 of the molar value.

The test concerns the target T1, CYP110 (Nostoc sp. PCC 7120 = FACHB-418, UniProt P29980).
T1 construct: recombinant, expressed in E. coli from pUC8 vector, purified soluble fraction; about 50 kDa; U38537 is the complete nifD element carrying cyp110
T1 sequence (P29980 1-459): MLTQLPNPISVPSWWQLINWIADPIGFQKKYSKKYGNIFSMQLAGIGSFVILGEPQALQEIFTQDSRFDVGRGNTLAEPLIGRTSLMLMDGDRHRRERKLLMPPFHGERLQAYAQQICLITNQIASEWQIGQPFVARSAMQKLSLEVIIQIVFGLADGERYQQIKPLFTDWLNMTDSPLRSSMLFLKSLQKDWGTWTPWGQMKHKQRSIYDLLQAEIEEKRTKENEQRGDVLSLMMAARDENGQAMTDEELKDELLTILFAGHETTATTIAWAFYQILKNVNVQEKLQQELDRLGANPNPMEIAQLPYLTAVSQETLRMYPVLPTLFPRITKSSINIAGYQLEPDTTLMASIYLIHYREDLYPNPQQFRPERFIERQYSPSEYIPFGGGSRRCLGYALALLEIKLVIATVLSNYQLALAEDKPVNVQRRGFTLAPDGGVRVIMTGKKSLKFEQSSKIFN
The experiment in a line: UV-visible spectral shift titration. Type of test: binding. The settings on record: read-out: Ks. From the text: UV-visible spectral shift titration on CYP110
With `CCCCCCCCCCN` [Decyl Amine], the pKd was 4.39. Turning to `CCCCCCN` [Hexyl Amine], the pKd is 3.49. As for `CCCCCCCCCCCCN` [Dodecyl Amine], the pKd was 4.92. As for `CCCCCCCCCCCC(N)=O` [Lauryl Amide], the pKd was 2.66. Turning to `CCCCCCCCCCCCC(=O)O` [Tridecanoic Acid], the pKd is 3.07.

Consider `CCCCC/C=C\C/C=C\C/C=C\C/C=C\CCCC(=O)O` [Arachidonic Acid], for which the pKd is 4.29. Under `CCCCCC=CCC=CCCCCCCCC(=O)O` [9,12-Octadecadienoic Acid] stands 3.14; under `CCCCCCCCCCCCCCC(=O)O` [Pentadecanoic Acid], 3.68; under `CCCCCN` [Pentyl Amine], 3.27. Under `CCCCCCCN` [Heptyl Amine] stands 3.99; under `CCCCCCCCCCCCCCCCC(=O)O` [Heptadecanoic Acid], 2.96; under `CCCCCCCCCCCC(=O)NC` [N-methyl Lauryl Amide], 2.59. With `CCCCCCCCCCCCCC(=O)O` [Tetradecanoic Acid] the figure was 4.04; with `CCCCCCCCCCCCCCCC(=O)O` [Hexadecanoic Acid], 3.30.

`CCCCCCCCCCCC(=O)O` [Dodecanoic Acid]: the pKd is 2.72.

Consider `CCCCCCCCN` [Ocytl Amine], for which the pKd is 4.09.

Consider `CC/C=C\C/C=C\C/C=C\CCCCCCCC(=O)O` [9,12,15-Octadecatrienoic Acid], for which the pKd was 4.21. With `CCCCCCCCCN` [Nonyl Amine] the figure was 4.21. As to `NCCCCCCCCCCCC(=O)O` [12-Aminododecanoic Acid], the pKd was 3.38. Under `CCCCCCCCCCCCCCCCCC(=O)O` [Octadecanoic Acid] stands 2.51.

Source of the values: paper PMC1079853, “Alkane-induced expression, substrate binding profile, and immunolocalization of a cytochrome P450 encoded on the nifD excision element of Anabaena 7120” (BMC Microbiology, 2005).
